Literature values as cited in US20190038750A1, “TRIPLE ANTIBIOTIC CATIONIC OINTMENT” (priority 2017, published 2019).

Key:
bacteria = conditions: very low concentrations
[1] = tested on: Klebsiella pneumoniae (carbapenem-resistant enterobacteriaceae)
[2] = tested on: vancomycin-resistant enterococci
[3] = tested on: Staphylococcus aureus (also the methicillin-resistant type, MRSA)
[4] = tested on: Aspergillus brasiliensis (mold)
[5] = in vivo

For Polyaminopropylbiguanide [PAPB], the fungicidal (fungus) is given as “fungicidal” and the bactericidal concentration (bacteria) is given as 10 mg/1.

For polyhexamethylenebiguanide [PHMB], the “effective against Candida albicans” value (Candida albicans (yeast)) is listed as “effective”, the “effective against Escherichia coli” value (Escherichia coli) is listed as “effective” and the “effective against Klebsiella pneumoniae (carbapenem-resistant)” value [1] is listed as “effective”. The “effective against vancomycin-resistant enterococci” value [2] was “effective”, the “effective against Pseudomonas aeruginosa” value (Pseudomonas aeruginosa) was “effective” and the “effective against Staphylococcus aureus (also MRSA)” value [3] was “effective”. The “effective against Aspergillus brasiliensis” value [4] was “effective”.

In the case of benzalkonium chloride, the burning sensation [5] is listed as “does not cause a burning sensation”.
